This is an account of results in publication PMC12277872, “Design, Synthesis, In Vitro, and In Silico Studies of 5‐(Diethylamino)‐2‐Formylphenyl Naphthalene‐2‐Sulfonate Based Thiosemicarbazones as Potent Anti‐Alzheimer Agents” (Archiv Der Pharmazie, 2025).

For test [1], the target named is T1, AChE from Electrophorus electricus (electric eel) (Electrophorus electricus, UniProt O42275).
T1 construct: purchased Sigma Aldrich C3389
The experiment in a line: biochemical. The conditions noted are these: for IC50: AChI substrate, DTNB, 412 nm, Tris/HCl pH 8.0; for Ki: read-out: K i (nM) AChE. The method, then:
Both […] (AChI) and butyrylcholine iodide (BChI) were used as substrates for the enzymatic hydrolysis reactions, with 5,5′‐dithiobis(2‐nitrobenzoic acid) (DTNB) serving as a common reagent for detecting the activities of AChE and BChE. The assay was conducted: 1 mL of 1.0 M Tris/HCl buffer (pH 8.0) was mixed with 10 μL of the sample solution in deionized water. To this mixture, 50 μL of AChE or BChE enzyme solution was added, and the reaction was incubated at room temperature for 10 min. After incubation, 50 μL of DTNB (0.5 mM) was introduced, followed by the addition of 50 μL of either AChI or BChI (10 mM), initiating the enzymatic reaction. […] This color change is due to the reaction of DTNB with thiocholine released during the hydrolysis of AChI or BChI. For every inhibitor that was utilized, IC50 and K i values were determined. In this study, C7512‐ BChE from equine serum and C3389‐ AChE from Electrophorus electricus (electric eel) were purchased from Sigma Aldrich.

A further test addresses T2, BChE from equine serum (Equus caballus, UniProt P81908).
T2 construct: C7512‐ BChE from equine serum; purchased Sigma Aldrich C7512; host or cells: equine serum
The experiment in a line: biochemical. As to conditions: for IC50: BChI substrate, DTNB, 412 nm, Tris/HCl pH 8.0; for Ki: read-out: K i (nM) BChE. The method, then: Both […] (AChI) and butyrylcholine iodide (BChI) were used as substrates for the enzymatic hydrolysis reactions, with 5,5′‐dithiobis(2‐nitrobenzoic acid) (DTNB) serving as a common reagent for detecting the activities of AChE and BChE. The assay was conducted: 1 mL of 1.0 M Tris/HCl buffer (pH 8.0) was mixed with 10 μL of the sample solution in deionized water. To this mixture, 50 μL of AChE or BChE enzyme solution was added, and the reaction was incubated at room temperature for 10 min. After incubation, 50 μL of DTNB (0.5 mM) was introduced, followed by the addition of 50 μL of either AChI or BChI (10 mM), initiating the enzymatic reaction. The hydrolysis of the substrates was monitored spectrophotometrically by measuring the absorbance at 412 nm, corresponding to the formation of the yellow‐colored 5‐thio‐2‐nitrobenzoate anion. This color change is due to the reaction of DTNB with thiocholine released during the hydrolysis of AChI or BChI. For every inhibitor that was utilized, IC50 and K i values were determined. In this study, C7512‐ BChE from equine serum and C3389‐ AChE from Electrophorus electricus (electric eel) were purchased from Sigma Aldrich.

Another test concerns the target T3, hMAO‐A (Homo sapiens, UniProt P21397).
T3 construct: purchased Sigma Aldrich M7316
T3 sequence (P21397 1-527): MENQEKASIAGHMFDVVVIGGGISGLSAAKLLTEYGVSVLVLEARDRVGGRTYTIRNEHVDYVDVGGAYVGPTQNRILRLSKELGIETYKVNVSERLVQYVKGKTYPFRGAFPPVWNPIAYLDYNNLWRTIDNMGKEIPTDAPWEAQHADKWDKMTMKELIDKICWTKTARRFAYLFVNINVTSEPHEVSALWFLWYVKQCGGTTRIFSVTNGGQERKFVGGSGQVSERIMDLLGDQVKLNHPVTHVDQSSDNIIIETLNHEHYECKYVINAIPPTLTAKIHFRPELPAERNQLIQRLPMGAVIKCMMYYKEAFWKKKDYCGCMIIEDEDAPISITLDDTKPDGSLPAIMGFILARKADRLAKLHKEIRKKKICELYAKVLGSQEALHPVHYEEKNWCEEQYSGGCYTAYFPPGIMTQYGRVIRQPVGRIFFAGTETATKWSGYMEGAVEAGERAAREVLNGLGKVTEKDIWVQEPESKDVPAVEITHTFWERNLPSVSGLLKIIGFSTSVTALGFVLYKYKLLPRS
In words: In vitro fluorometric MAO-A inhibition assay (tyramine substrate, horseradish peroxidase coupling). The test is classed as biochemical. The procedure:
(§1) The in vitro fluorometric technique was used to assess each newly generated substance's inhibitory activity against hMAO‐A and hMAO‐B. In a horseradish peroxidase coupling reaction, the oxired reagent (10‐acetyl‐3,7‐dihydroxyphenoxazine) detects H2O2, a result of the oxidative deamination of tyramine, which is utilized as an MAO substrate. The test was carried out in two steps. First, each compound's concentrations of 10^–3 and 10^–4 M were investigated. […] These parameters of this study were made as in previous studies. We purchased these two enzymes from Sigma Aldrich (M7316‐Monoamine Oxidase A human and M7441‐ […]).

For a further test, the target named is T4, hMAO‐B (Homo sapiens, UniProt P27338).
T4 construct: purchased Sigma Aldrich M7441
T4 sequence (P27338 1-520): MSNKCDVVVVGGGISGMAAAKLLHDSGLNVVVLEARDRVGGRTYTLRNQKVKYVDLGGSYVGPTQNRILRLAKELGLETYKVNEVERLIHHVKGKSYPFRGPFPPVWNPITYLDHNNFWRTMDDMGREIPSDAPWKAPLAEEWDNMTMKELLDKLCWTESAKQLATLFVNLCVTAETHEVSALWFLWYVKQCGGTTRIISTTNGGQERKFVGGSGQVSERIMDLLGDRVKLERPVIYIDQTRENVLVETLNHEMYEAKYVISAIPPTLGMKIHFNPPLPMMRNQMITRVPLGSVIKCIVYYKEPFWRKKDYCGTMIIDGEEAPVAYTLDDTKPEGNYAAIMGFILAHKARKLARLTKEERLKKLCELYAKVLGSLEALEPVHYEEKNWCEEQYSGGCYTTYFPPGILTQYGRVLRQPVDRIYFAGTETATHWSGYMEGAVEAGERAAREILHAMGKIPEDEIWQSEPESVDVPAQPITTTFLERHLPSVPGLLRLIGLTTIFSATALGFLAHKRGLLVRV
In words: In vitro fluorometric MAO-B inhibition assay (tyramine substrate, horseradish peroxidase coupling). The test is classed as biochemical. The method, then:
as §1

T1 sequence (O42275 24-633): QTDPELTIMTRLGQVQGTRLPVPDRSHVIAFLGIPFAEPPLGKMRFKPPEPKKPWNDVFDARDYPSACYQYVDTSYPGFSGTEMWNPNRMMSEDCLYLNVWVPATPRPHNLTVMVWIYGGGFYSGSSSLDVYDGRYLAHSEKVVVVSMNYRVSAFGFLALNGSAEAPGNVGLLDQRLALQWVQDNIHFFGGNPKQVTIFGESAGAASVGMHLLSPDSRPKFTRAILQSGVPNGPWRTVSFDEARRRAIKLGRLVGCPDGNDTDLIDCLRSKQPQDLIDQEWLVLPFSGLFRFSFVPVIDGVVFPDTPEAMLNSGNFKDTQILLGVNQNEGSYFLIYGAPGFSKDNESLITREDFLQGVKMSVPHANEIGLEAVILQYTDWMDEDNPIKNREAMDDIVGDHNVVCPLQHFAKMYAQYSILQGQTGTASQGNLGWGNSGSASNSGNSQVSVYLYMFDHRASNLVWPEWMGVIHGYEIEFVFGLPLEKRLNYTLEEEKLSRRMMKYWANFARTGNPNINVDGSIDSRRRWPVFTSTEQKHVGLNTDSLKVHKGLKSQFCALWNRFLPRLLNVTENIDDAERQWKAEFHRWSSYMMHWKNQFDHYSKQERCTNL
T2 sequence (P81908 whole entry): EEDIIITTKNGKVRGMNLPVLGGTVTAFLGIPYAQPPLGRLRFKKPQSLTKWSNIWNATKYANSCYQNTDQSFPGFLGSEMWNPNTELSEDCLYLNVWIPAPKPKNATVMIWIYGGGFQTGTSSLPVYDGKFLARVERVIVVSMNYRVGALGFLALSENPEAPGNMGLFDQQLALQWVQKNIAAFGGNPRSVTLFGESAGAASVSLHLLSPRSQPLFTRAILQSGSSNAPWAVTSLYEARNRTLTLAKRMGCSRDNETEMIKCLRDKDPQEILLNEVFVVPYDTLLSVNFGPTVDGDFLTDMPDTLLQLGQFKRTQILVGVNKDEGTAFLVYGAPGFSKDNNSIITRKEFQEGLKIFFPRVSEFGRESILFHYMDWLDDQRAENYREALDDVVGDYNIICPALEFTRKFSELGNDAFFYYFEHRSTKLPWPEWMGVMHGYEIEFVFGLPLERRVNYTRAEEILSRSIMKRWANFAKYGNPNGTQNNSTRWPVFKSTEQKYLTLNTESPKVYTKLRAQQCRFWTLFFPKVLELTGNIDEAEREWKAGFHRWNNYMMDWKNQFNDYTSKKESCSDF

The IC50 is the concentration that gives 50% inhibition. Low readings indicate inhibition by little substance, high ones a need for much substance. Take `CCN(CC)c1ccc(/C=N/NC(=S)Nc2ccc(Br)cc2)c(OS(=O)(=O)c2ccc3ccccc3c2)c1` [Compound 5b, (E)‐2‐({2‐[(4‐Bromophenyl)carbamothioyl]hydrazono}methyl)‐5‐(diethylamino)phenyl naphthalene‐2‐sulfonate]: the half-inhibitory concentration (IC50) in test [1] was determined as 33.8 ± 3.41 nM; on BChE from equine serum it was 202 ± 5.66 nM; on hMAO‐A it was 132 ± 7.01 nM; against hMAO‐B it was 410 ± 7.47 nM. The Ki in test [1] is 26.6 ± 3.34 nM; on BChE from equine serum, 191 ± 15.7 nM.

Take `CCN(CC)c1ccc(/C=N/NC(=S)Nc2ccc(F)cc2)c(OS(=O)(=O)c2ccc3ccccc3c2)c1` [Compound 5l, (E)‐5‐(Diethylamino)‐2‐({2‐[(4‐fluorophenyl)carbamothioyl]hydrazono}methyl)phenyl naphthalene‐2‐sulfonate]: the IC50 in test [1] is 29.5 ± 2.68 nM; on BChE from equine serum, 200 ± 6.88 nM; against hMAO‐A, 112 ± 2.78 nM; against hMAO‐B, 277 ± 6.33 nM. The Ki in test [1] is 27.4 ± 3.45 nM; at BChE from equine serum it was 182 ± 9.05 nM.

`CCN(CC)c1ccc(/C=N/NC(=S)Nc2cccc(OC)c2)c(OS(=O)(=O)c2ccc3ccccc3c2)c1` [Compound 5k, (E)‐5‐(Diethylamino)‐2‐({2‐[(3‐methoxyphenyl)carbamothioyl]hydrazono}methyl)phenyl naphthalene‐2‐sulfonate]: the IC50 in test [1] is 116 ± 8.42 nM; against BChE from equine serum, 253 ± 9.15 nM; against hMAO‐A, 145 ± 8.03 nM; at hMAO‐B it was greater than 1000 nM. In addition, the Ki in test [1] is 95.8 ± 9.54 nM; at BChE from equine serum it was 205 ± 10.2 nM.

Consider `CCN(CC)c1ccc(/C=N/NC(N)=S)c(OS(=O)(=O)c2ccc3ccccc3c2)c1` [Compound 5n, (E)‐2‐[(2‐Carbamothioylhydrazono)methyl]‐5‐(diethylamino)phenyl naphthalene‐2‐sulfonate], for which the IC50 in test [1] stood at 47.7 ± 5.67 nM; against BChE from equine serum, 308 ± 9.98 nM; at hMAO‐A, 137 ± 6.55 nM; against hMAO‐B it was 396 ± 8.09 nM. In addition, the Ki in test [1] came to 42.4 ± 4.1 nM; on BChE from equine serum, 270 ± 13.5 nM.

As to `CCN(CC)c1ccc(/C=N/NC(=S)Nc2ccc(OC)cc2)c(OS(=O)(=O)c2ccc3ccccc3c2)c1` [Compound 5d, (E)‐5‐(Diethylamino)‐2‐({2‐[(4‐methoxyphenyl)carbamothioyl]hydrazono}methyl)phenyl naphthalene‐2‐sulfonate], the IC50 in test [1] was determined as 39.4 ± 2.87 nM; on BChE from equine serum it was 253 ± 10.5 nM; against hMAO‐A it was 171 ± 10.4 nM; against hMAO‐B, 406 ± 8.24 nM. Also, the figures for the Ki (in test [1]; at BChE from equine serum) were 32.2 ± 5.93 nM and 235 ± 15 nM, respectively.

As for `CCN(CC)c1ccc(/C=N/NC(=S)Nc2ccc(Cl)cc2)c(OS(=O)(=O)c2ccc3ccccc3c2)c1` [Compound 5i, (E)‐2‐({2‐[(4‐Chlorophenyl)carbamothioyl]hydrazono}methyl)‐5‐(diethylamino)phenyl naphthalene‐2‐sulfonate], the IC50 came out at 24.8 ± 2.41 nM in test [1], 200 ± 9.41 nM on BChE from equine serum, 121 ± 3.15 nM against hMAO‐A and 285 ± 4.02 nM against hMAO‐B. Further, the Ki in test [1] amounted to 21 ± 4.12 nM; at BChE from equine serum it was 190 ± 13.6 nM.

Turning to `CCN(CC)c1ccc(/C=N/NC(=S)Nc2ccccc2C)c(OS(=O)(=O)c2ccc3ccccc3c2)c1` [Compound 5r, (E)‐5‐(Diethylamino)‐2‐{[2‐(o‐tolylcarbamothioyl)hydrazono]methyl}phenyl naphthalene‐2‐sulfonate], the half-maximal inhibitory concentration (IC50) came to 27.4 ± 2.42 nM in test [1], 294 ± 7.14 nM against BChE from equine serum, 143 ± 6.78 nM at hMAO‐A and 495 ± 8.36 nM on hMAO‐B. Besides, the figures for the Ki (in test [1]; at BChE from equine serum) were 21.2 ± 1.05 nM and 249 ± 15.3 nM, respectively.

With `CCN(CC)c1ccc(/C=N/NC(=S)NC2CCCCC2)c(OS(=O)(=O)c2ccc3ccccc3c2)c1` [Compound 5p, (E)‐2‐{[2‐(Cyclohexylcarbamothioyl)hydrazono]methyl}‐5‐(diethylamino)phenyl naphthalene‐2‐sulfonate], the IC50 in test [1] is 54.5 ± 4.57 nM; against BChE from equine serum, 254 ± 8.08 nM; at hMAO‐A, 145 ± 3.57 nM; at hMAO‐B, 327 ± 9.13 nM. The Ki in test [1] amounted to 47.1 ± 6.35 nM; on BChE from equine serum it was 226 ± 12.6 nM.

Turning to `CCN(CC)c1ccc(/C=N/NC(=S)Nc2cccc(Cl)c2Cl)c(OS(=O)(=O)c2ccc3ccccc3c2)c1` [Compound 5a, (E)‐2‐({2‐[(2,3‐Dichlorophenyl)carbamothioyl]hydrazono}methyl)‐5‐(diethylamino)phenyl naphthalene‐2‐sulfonate], the IC50 was found to be 14.9 ± 1.54 nM in test [1], 125 ± 9.13 nM at BChE from equine serum, 104 ± 4.58 nM against hMAO‐A and 391 ± 9.04 nM on hMAO‐B. Besides, the Ki turned out to be 11.4 ± 3.06 nM in test [1] and 101 ± 22.4 nM at BChE from equine serum.
